{
  "source": "patent US11000516B2",
  "about": "(priority 2015, dated 2021)",
  "key": {"[1]": {"system": "EDEN2 (clinical DENV2 isolate)", "experiment": "Antiviral effect in HuH-7 cells, plaque assay of supernatant 48 h pi", "format": "cell-based", "details": "HuH-7, EDEN2, MOI 0.3; read-out: EC50", "description": "(§1) Cells were infected with DENV strains for 1 hour at 37° C. and washed once with culture media. […] The supernatants were subjected to standard plaque assay and the EC50 values were determined using the GraphPad Prism software.\n(§2) NITD008, an adenosine analog inhibitor of DENV polymerase (Yin et al., 2009) was used as a positive control."}, "[2]": {"system": "EDEN1 (clinical DENV1 isolate)", "experiment": "Antiviral effect in HuH-7 cells, plaque assay of supernatant 48 h pi", "format": "cell-based", "details": "read-out: EC50", "description": "as §1, §2"}, "[3]": {"system": "S221 (mouse-adapted DENV2 strain)", "experiment": "Antiviral effect in HuH-7 cells, plaque assay of supernatant 48 h pi", "format": "cell-based", "details": "HuH-7, S221, MOI 0.3; read-out: EC50", "description": "as §1, §2"}, "[4]": {"system": "EDEN2 (clinical DENV2 isolate)", "experiment": "Ab-mediated infection of THP-1 cells with enhancing concentration of 4G2 Ab", "format": "cell-based", "details": "THP-1 with 4G2 Ab, EDEN2, MOI 50, single experiment; read-out: EC50", "description": "as §1, §2"}, "[5]": {"system": "EDEN1 (clinical DENV1 isolate)", "experiment": "Ab-mediated infection of THP-1 cells with enhancing concentration of 4G2 Ab", "format": "cell-based", "details": "THP-1 with 4G2 Ab, EDEN1, MOI 2, single experiment; read-out: EC50", "description": "as §1, §2"}, "[6]": {"system": "S221 (mouse-adapted DENV2 strain)", "experiment": "Ab-mediated infection of THP-1 cells with enhancing concentration of 4G2 Ab", "format": "cell-based", "details": "THP-1 with 4G2 Ab, S221, MOI 2, single experiment; read-out: EC50", "description": "as §1, §2"}, "[7]": {"system": "EDEN2 (clinical DENV2 isolate)", "experiment": "Antiviral effect in Vero cells, plaque assay of supernatant 48 h pi", "format": "cell-based", "details": "EDEN2, MOI 0.3, read-out: EC50", "description": "as §1, §2"}, "[8]": {"system": "EDEN1 (clinical DENV1 isolate)", "experiment": "Antiviral effect in Vero cells, plaque assay of supernatant 48 h pi", "format": "cell-based", "description": "as §1, §2"}, "[9]": {"system": "S221 (mouse-adapted DENV2 strain)", "experiment": "Antiviral effect in Vero cells, plaque assay of supernatant 48 h pi", "format": "cell-based", "details": "S221, MOI 0.3, read-out: EC50", "description": "as §1, §2"}, "[10]": {"system": "EDEN2 (clinical DENV2 isolate)", "experiment": "Antiviral effect in BHK-21 cells, plaque assay of supernatant 48 h pi", "format": "cell-based", "details": "BHK-21, EDEN2, MOI 0.3; read-out: EC50", "description": "as §1, §2"}, "[11]": {"system": "EDEN1 (clinical DENV1 isolate)", "experiment": "Antiviral effect in BHK-21 cells, plaque assay of supernatant 48 h pi", "format": "cell-based", "details": "read-out: EC50", "description": "as §1, §2"}, "[12]": {"system": "S221 (mouse-adapted DENV2 strain)", "experiment": "Antiviral effect in BHK-21 cells, plaque assay of supernatant 48 h pi", "format": "cell-based", "details": "BHK-21, S221, MOI 0.3; read-out: EC50", "description": "as §1, §2"}, "EDEN2": {"system": "EDEN2", "experiment": "Non-lethal viremia mouse model", "format": "in vivo, mice", "description": "(§3) Mice were inoculated i.v. with EDEN1 (7×10^7 pfu) or EDEN2 (1×10^8 pfu). […] Average viral copy numbers on day 1 and 2 were measured using mixed serum of each group. […] A P value less than 0.05 was considered significant (*P<0.05). The number of mice per group is 6. […] Average viral copy numbers on days 4 and 5 were measured using mixed serum of each group. […] The virological log reduction (VLR) from day 3 to day 6 was also shown as the mean value and standard deviations. The number of mice per group is 6.\n(§4) Since dengue fever patients in general present at a clinic when viremia is at a peak level (Low et al., 2014; Nguyen et al., 2013; Tricou et al., 2010), we next compared the 2 different dosing regimens; one started at the time of infection and another started at the time of peak viremia (on day 3 pi) similar to human situation (FIG. 4A). In this experiment, we used a non-lethal viremia mouse model, which permits the tracking of viremia kinetics for a longer period of time (FIG. 1B)."}, "EDEN1": {"system": "EDEN1", "experiment": "Non-lethal viremia mouse model", "format": "in vivo, mice", "description": "as §3, §4"}, "[13]": {"details": "mice, celgosivir 50 mg/kg BID; cited from earlier work"}, "[14]": {"details": "CELADEN study regimen, human; cited from earlier work"}},
  "data": [
    {"compound": "C#C[C@@]1(O)[C@H](O)[C@@H](CO)O[C@H]1n1ccc2c(N)ncnc21", "note": "[NITD008, reference compound]", "values": [
      {"measurement": "EC50", "setting": "[1]", "value": 98, "unit": "nM"},
      {"measurement": "EC50", "setting": "[2]; HuH-7, EDEN1, MOI 0.01", "value": 356, "unit": "nM"},
      {"measurement": "EC50", "setting": "[2]; HuH-7, EDEN1, MOI 0.3", "value": 684, "unit": "nM"},
      {"measurement": "EC50", "setting": "[3]", "value": 74, "unit": "nM"},
      {"measurement": "EC50", "setting": "[4]", "value": 679, "unit": "nM"},
      {"measurement": "EC50", "setting": "[5]", "value": 358, "unit": "nM"},
      {"measurement": "EC50", "setting": "[6]", "value": 390, "unit": "nM"},
      {"measurement": "EC50", "setting": "[7]", "value": 1170, "unit": "nM"},
      {"measurement": "EC50", "setting": "[8]; EDEN1, MOI 0.01, read-out: EC50", "value": 910, "unit": "nM"},
      {"measurement": "EC50", "setting": "[8]; EDEN1, MOI 0.3, read-out: EC50", "value": 2820, "unit": "nM"},
      {"measurement": "EC50", "setting": "[9]", "value": 1480, "unit": "nM"},
      {"measurement": "EC50", "setting": "[10]", "value": 354, "unit": "nM"},
      {"measurement": "EC50", "setting": "[11]; BHK-21, EDEN1, MOI 0.01", "value": 608, "unit": "nM"},
      {"measurement": "EC50", "setting": "[11]; BHK-21, EDEN1, MOI 0.3", "value": 865, "unit": "nM"},
      {"measurement": "EC50", "setting": "[12]", "value": 509, "unit": "nM"},
      {"measurement": "viremia reduction on day 3 pi", "setting": "EDEN2; EDEN2, NITD008 25 mg/kg BID from day 0", "value": 4.9, "unit": "fold"},
      {"measurement": "VLR from day 3 to day 6", "setting": "EDEN2; EDEN2, NITD008 25 mg/kg BID started on day 3", "value": 2.24},
      {"measurement": "viremia reduction on day 3 pi", "setting": "EDEN1; EDEN1, NITD008 25 mg/kg BID from day 0", "value": 3.5, "unit": "fold"},
      {"measurement": "VLR from day 3 to day 6", "setting": "EDEN1; EDEN1, NITD008 25 mg/kg BID started on day 3", "value": 0.96}
    ]},
    {"compound": "O[C@H]1[C@H](O)[C@@H](O)CN2CC[C@H](O)[C@H]12", "note": "[castanospermine]", "values": [
      {"measurement": "steady state minimum castanospermine concentration", "setting": "[13]", "value": 400, "unit": "nanograms/ml"},
      {"measurement": "steady state maximum castanospermine concentration", "setting": "[14]", "value": 5100, "unit": "nanograms/ml"}
    ]}
  ]
}
